According to ChEMBL document CHEMBL1132897, “The basal SAR of a novel insulin receptor activator” (Bioorg Med Chem Lett, 2000):

Tests used:
[1] = biological target: Insulin receptor (Homo sapiens) (UniProt P06213); test: Percent activation of insulin receptor in CHO cells by 10 uM of compound; assay type: cell-based
[2] = biological target: Insulin receptor (Homo sapiens) (UniProt P06213); test: Ability to activate the insulin receptor compared to that of lead structure 1 expressed as X/1

Sequence of Insulin receptor (Homo sapiens) (P06213 28-758 limits assumed): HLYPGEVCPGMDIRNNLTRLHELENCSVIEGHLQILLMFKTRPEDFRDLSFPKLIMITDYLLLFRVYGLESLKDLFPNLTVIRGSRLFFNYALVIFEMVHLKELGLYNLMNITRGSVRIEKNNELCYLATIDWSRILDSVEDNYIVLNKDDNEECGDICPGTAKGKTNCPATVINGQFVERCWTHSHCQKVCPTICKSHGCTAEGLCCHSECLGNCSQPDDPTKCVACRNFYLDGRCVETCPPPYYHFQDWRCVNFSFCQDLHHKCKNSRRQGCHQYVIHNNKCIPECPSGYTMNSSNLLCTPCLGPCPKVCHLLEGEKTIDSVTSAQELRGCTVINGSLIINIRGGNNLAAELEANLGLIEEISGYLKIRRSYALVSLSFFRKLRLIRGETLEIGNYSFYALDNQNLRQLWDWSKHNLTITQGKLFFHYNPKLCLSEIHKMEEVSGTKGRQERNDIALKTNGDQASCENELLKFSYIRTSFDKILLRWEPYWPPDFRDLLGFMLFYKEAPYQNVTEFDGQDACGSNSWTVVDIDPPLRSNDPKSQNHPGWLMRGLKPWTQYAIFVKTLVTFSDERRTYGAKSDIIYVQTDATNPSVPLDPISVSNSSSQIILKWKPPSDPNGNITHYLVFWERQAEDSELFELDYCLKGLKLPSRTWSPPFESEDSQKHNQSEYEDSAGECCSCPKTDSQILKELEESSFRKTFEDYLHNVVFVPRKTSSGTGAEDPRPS
Sequence of Insulin receptor (Homo sapiens) (P06213 763-1382 limits assumed): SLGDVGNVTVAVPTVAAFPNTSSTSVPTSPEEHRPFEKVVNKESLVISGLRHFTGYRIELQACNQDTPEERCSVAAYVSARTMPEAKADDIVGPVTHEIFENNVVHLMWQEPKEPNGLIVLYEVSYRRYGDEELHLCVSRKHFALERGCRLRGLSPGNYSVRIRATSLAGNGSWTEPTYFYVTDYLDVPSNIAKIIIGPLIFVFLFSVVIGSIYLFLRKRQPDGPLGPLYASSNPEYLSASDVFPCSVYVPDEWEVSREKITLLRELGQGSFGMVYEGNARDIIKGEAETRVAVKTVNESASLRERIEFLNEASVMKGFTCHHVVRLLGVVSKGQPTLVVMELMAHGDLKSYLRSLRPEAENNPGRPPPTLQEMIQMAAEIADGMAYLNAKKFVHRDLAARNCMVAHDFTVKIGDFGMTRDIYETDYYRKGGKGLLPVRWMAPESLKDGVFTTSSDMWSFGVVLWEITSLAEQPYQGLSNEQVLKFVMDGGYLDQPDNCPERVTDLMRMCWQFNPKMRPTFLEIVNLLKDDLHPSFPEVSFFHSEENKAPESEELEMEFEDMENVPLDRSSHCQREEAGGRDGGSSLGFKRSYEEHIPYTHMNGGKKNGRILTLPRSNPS

SMILES | Activation [1] [%] | Relative activity [2]
C=CC(C)(C)c1[nH]c2ccccc2c1C1=C(O)C(=N\C)/C(c2c[nH]c3c(CC=C(C)C)cccc23)=C(O)C/1=N/C | 1 | 0.01
C=CC(C)(C)c1[nH]c2ccccc2c1C1=C(OC)C(=O)C(c2c[nH]c3c(CC=C(C)C)cccc23)=C(OC)C1=O | 0 | 0
C=CC(C)(C)c1[nH]c2ccccc2c1C1=C(OS(=O)(=O)C(F)(F)F)C(=O)C(c2c[nH]c3c(CC=C(C)C)cccc23)=C(OS(=O)(=O)C(F)(F)F)C1=O | 0 | 0
C=CC(C)(C)c1c(C2=C(O)C(O)=C(c3cn(C)c4c(CC=C(C)C)cccc34)C(=O)C2=O)c2ccccc2n1C | 3 | 0.03
C=CC(C)(C)c1c(C2=C(O)C(O)=C(c3c[nH]c4c(CCC(C)(C)O)cccc34)C(=O)C2=O)c2ccccc2n1C | 79 | 1.05
C=CC(C)(C)c1[nH]c2ccccc2c1C1=C(O)C(O)=C(c2c[nH]c3c(CCC(C)(C)OC(=O)C(F)(F)F)cccc23)C(=O)C1=O | 48 | 0.64
C=CC(C)(C)c1[nH]c2ccccc2c1C1=C(OS(=O)(=O)C(F)(F)F)C(=O)C(c2c[nH]c3c(CC=C(C)C)cccc23)=C(N)C1=O | 0 | 0
C=CC(C)(C)c1[nH]c2ccccc2c1C1=C(O)C(O)=C(c2c[nH]c3c(CC(O)C(C)(C)O)cccc23)C(=O)C1=O (stereo not given) | 75 | 1

The remaining lines, values ahead:

Activation [1] [%] | Relative activity [2] | SMILES
24 | 0.32 | C=CC(C)(C)c1[nH]c2ccccc2c1C1=C(O)C(O)=C(c2cn(C)c3c(CC=C(C)C)cccc23)C(=O)C1=O
2 | 0.03 | C=CC(C)(C)c1[nH]c2ccccc2c1C1=C(O)C(N)=C(c2c[nH]c3c(CC=C(C)C)cccc23)C(=O)C1=O
35 | 0.47 | C=CC(C)(C)c1[nH]c2ccccc2c1C1=C(O)C(O)=C(c2c[nH]c3c(CCC(C)(C)O)cccc23)C(=O)C1=O
75 | 1 | C=CC(C)(C)c1[nH]c2ccccc2c1C1=C(O)C(O)=C(c2c[nH]c3c(CC=C(C)C)cccc23)C(=O)C1=O
16 | 0.21 | C=CC(C)(C)c1[nH]c2ccccc2c1C1=C(OC)C(=O)C(c2c[nH]c3c(CC=C(C)C)cccc23)=C(O)C1=O
82 | 1.09 | CCC(C)(C)c1[nH]c2ccccc2c1C1=C(O)C(O)=C(c2c[nH]c3c(CC=C(C)C)cccc23)C(=O)C1=O
57 | 0.76 | CCC(C)(C)c1[nH]c2ccccc2c1C1=C(O)C(O)=C(c2c[nH]c3c(CCC(C)C)cccc23)C(=O)C1=O
